In one experiment the test system is HT-29 cells. The experiment in a line: Protection against programmed necrosis of HT-29 cells (TNF α/Smac mimetic/Z-VAD-FMK, CCK8). The class given is cell-based. The note with it: Homo sapiens, TNF α/Smac mimetic/Z-VAD-FMK induced 24 h, CCK8, read-out: HT-29 (EC50).
Another experiment concerns the target RIPK1 (Homo sapiens (Human), UniProt Q13546). The experiment in a line: In vitro kinase assay (Eurofins Kinase Profiler), IC50. Type of experiment: biochemical. The note with it: 0.001-10 μM, read-out: RIPK 1 (IC50).

Chain of RIPK1 (Q13546 whole entry): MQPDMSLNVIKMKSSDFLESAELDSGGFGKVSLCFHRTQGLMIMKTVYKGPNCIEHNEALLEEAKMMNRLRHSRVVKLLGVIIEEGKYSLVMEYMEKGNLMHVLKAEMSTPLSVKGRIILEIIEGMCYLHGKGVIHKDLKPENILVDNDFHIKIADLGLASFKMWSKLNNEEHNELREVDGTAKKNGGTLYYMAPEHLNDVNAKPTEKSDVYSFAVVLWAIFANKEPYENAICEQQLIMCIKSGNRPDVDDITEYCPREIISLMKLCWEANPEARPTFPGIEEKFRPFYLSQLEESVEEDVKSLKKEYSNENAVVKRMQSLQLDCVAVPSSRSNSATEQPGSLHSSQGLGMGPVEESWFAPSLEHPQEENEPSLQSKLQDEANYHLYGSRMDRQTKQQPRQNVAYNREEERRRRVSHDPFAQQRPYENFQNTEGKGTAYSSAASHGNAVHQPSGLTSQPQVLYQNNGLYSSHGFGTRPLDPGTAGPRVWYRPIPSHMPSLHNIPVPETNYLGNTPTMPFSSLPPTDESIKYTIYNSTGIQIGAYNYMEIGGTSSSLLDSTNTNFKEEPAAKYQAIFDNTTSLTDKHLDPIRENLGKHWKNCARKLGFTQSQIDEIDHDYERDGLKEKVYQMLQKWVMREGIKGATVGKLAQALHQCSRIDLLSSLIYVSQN
Experimental for RIPK1: In vitro kinase assays were conducted using Kinase Profiler services provided by Eurofins. The experimental method was as follows: the small molecule compound to be tested (0.001-10 μM), the protein kinase to be tested were incubated with a buffer containing substrate, 10 mM magnesium acetate, and [γ-^33P-ATP], the reaction was started by adding Mg\TPmix, after incubation for a period of time at room temperature, a 3% phosphate solution was added to the buffer to stop the reaction. Subsequently, 10 μL of the reaction mixture was quantitatively pipetted onto P30 filter paper, which was washed three times with 75 mM phosphate solution and then once with methanol. The P30 filter paper was air-dried and scintillation fluid was added for scintillation counting.

The EC50 is the concentration at which the effect is half-maximal. In general, IC50 refers to the concentration that gives 50% inhibition. Consider `C[C@H](NC(=O)c1cn(C)c2ccc(-c3ccn4nc(NC(=O)C5CC5(F)F)nc4c3)cc12)c1cccc(F)c1` (stereo partly drawn) [Compound 142, 5-(2-(2,2-difluorocyclopropane-1-carboxamido)-[1,2,4]triazolo[1,5-a]pyridin-7-yl)-N-((S)-1-(3-fluorophenyl)ethyl)-1-methyl-1H-indole-3-Carboxamide], for which the EC50 in the experiment with HT-29 cells was < 1 nM. In addition, at RIPK1, the IC50 fell in the range of 10 to 100 nM.
On to `C[C@H](NC(=O)c1cn(C)c2ccc(-c3ccn4nc(NC(=O)[C@H]5C[C@H]5F)nc4c3)cc12)c1cccc(F)c1` [Compound 143], for which the EC50 in the experiment on HT-29 cells is < 1 nM. Besides, the IC50 at RIPK1 lay in the range of 10 to 100 nM.
As to `C[C@H](NC(=O)c1cn(C)c2ccc(-c3ccn4nc(NC(=O)[C@@H]5C[C@@H]5F)nc4c3)cc12)c1cccc(F)c1` [Compound 144], the EC50 in the experiment on HT-29 cells is < 1 nM. The IC50 at RIPK1 fell in the range of 10 to 100 nM.
The corresponding values for `C[C@H](NC(=O)c1cn(C)c2ccc(-c3ccn4nc(NC(=O)C5(F)CC5)nc4c3)cc12)c1cccc(F)c1` [Compound 145] are < 1 nM and 1 to 10 nM.
The corresponding values for `C[C@H](NC(=O)c1cn(C)c2ccc(-c3ccn4nc(NC(=O)C5CC(F)(F)C5)nc4c3)cc12)c1cccc(F)c1` [Compound 146] are < 1 nM and 1 to 10 nM.
For `C[C@H](NC(=O)c1cn(C)c2ccc(-c3ccn4nc(NC(=O)C5CCC(F)(F)CC5)nc4c3)cc12)c1cccc(F)c1` [Compound 147] the same measures were 1 to 10 nM and 10 to 100 nM.
As to `C[C@H](NC(=O)c1cn(C)c2ccc(-c3ccn4nc(NC(=O)C(C)(C)CCl)nc4c3)cc12)c1cccc(F)c1` [Compound 148], the EC50 with HT-29 cells was ≥ 1000 nM. Also, the 50% inhibitory concentration (IC50) at RIPK1 is ≥ 1000 nM.
With `CCn1cc(C(=O)N[C@@H](C)c2cccc(F)c2)c2cc(-c3ccn4nc(NC(=O)C5CC5)nc4c3)ccc21` [Compound 149], the EC50 in the experiment with HT-29 cells was < 1 nM. The IC50 on RIPK1 was in the range of 10 to 100 nM.
As for `CC(C)n1cc(C(=O)N[C@@H](C)c2cccc(F)c2)c2cc(-c3ccn4nc(NC(=O)C5CC5)nc4c3)ccc21` [Compound 150], in the experiment on HT-29 cells, the EC50 lay in the range of 1 to 10 nM. Moreover, the IC50 at RIPK1 was 10 to 100 nM.
On to `CCCn1cc(C(=O)N[C@@H](C)c2cccc(F)c2)c2cc(-c3ccn4nc(NC(=O)C5CC5)nc4c3)ccc21` [Compound 151], for which, in the experiment on HT-29 cells, the EC50 was < 1 nM. Also, the 50% inhibitory concentration (IC50) at RIPK1 lay in the range of 1 to 10 nM.
For `CCCCn1cc(C(=O)N[C@@H](C)c2cccc(F)c2)c2cc(-c3ccn4nc(NC(=O)C5CC5)nc4c3)ccc21` [Compound 152], in the experiment with HT-29 cells, the EC50 was in the range of 10 to 100 nM. For the same compound, at RIPK1, the IC50 fell in the range of 10 to 100 nM.
Take `CC(C)Cn1cc(C(=O)N[C@@H](C)c2cccc(F)c2)c2cc(-c3ccn4nc(NC(=O)C(C)C)nc4c3)ccc21` [Compound 153]: in the experiment with HT-29 cells, the EC50 lay within 100 to 1000 nM. In addition, the IC50 on RIPK1 lay in the range of 100 to 1000 nM.
As for `COCCn1cc(C(=O)N[C@@H](C)c2cccc(F)c2)c2cc(-c3ccn4nc(NC(=O)C5CC5)nc4c3)ccc21` [Compound 154], the EC50 in the experiment on HT-29 cells fell in the range of 1 to 10 nM. For the same compound, at RIPK1, the IC50 lay in the range of 10 to 100 nM.
Regarding `C[C@H](NC(=O)c1cn(C)c2ccc(-c3ccc4nc(NC(=O)C5CC5)nn4c3)cc12)c1cccc(F)c1` [Compound 155], the EC50 in the experiment with HT-29 cells lay within 1 to 10 nM. The IC50 on RIPK1 lay within 10 to 100 nM.
The corresponding values for `C[C@@H](NC(=O)c1cn(C)c2ccc(-c3ccn4nc(NC(=O)C5CC5)nc4c3)cc12)c1cccc(F)c1` [Compound 156] are < 1 nM and 10 to 100 nM.
For `CC(C)C(=O)Nc1nc2cc(-c3cnc4[nH]cc(C(=O)N[C@@H](C)c5cccc(F)c5)c4c3)ccn2n1` [Compound 157] the same measures were 1 to 10 nM and 10 to 100 nM.
For `CC(C)C(=O)Nc1nc2cc(-c3cnc4c(c3)c(C(=O)N[C@@H](C)c3cccc(F)c3)cn4C)ccn2n1` [Compound 158], the EC50 with HT-29 cells is < 1 nM. In addition, the IC50 at RIPK1 lay in the range of 1 to 10 nM.
For the compound `CC(C)C(=O)Nc1nc2cc(-c3cn(C)c4ncc(C(=O)N[C@@H](C)c5cccc(F)c5)cc34)ccn2n1` [Compound 159], the EC50 in the experiment on HT-29 cells is 100 to 1000 nM. The IC50 at RIPK1 was 100 to 1000 nM.
As for `C[C@H](NC(=O)c1ccc2ncc(-c3ccn4nc(NC(=O)C5CC5)nc4c3)cc2c1)c1cccc(F)c1` [Compound 160], the EC50 in the experiment with HT-29 cells was 10 to 100 nM. Besides, the IC50 at RIPK1 is 10 to 100 nM.
Take `C[C@H](NC(=O)c1cn(C)c2ccc(-c3ccn4nc(NC(=O)C5CCCO5)nc4c3)cc12)c1cccc(F)c1` (stereo partly drawn) [Compound 161]: in the experiment with HT-29 cells, the 50% effective concentration (EC50) was < 1 nM. Also, the IC50 on RIPK1 was 1 to 10 nM.
In the case of `C[C@H](NC(=O)c1cn(C)c2ccc(-c3ccn4nc(NC(=O)N5CC[C@@H](O)C5)nc4c3)cc12)c1cccc(F)c1` [Compound 162, N-((S)-1-(3-fluorophenyl)ethyl)-5-(2-((R)-3-hydroxypyrrolidine-1-carboxamido)-[1,2,4]triazolo[1,5-a]pyridin-7-yl)-1-methyl-1H-indole-3-carboxamide], the EC50 in the experiment on HT-29 cells was in the range of 10 to 100 nM. Besides, the IC50 at RIPK1 was in the range of 10 to 100 nM.
On to `C[C@H](NC(=O)c1cn(C)c2ccc(-c3ccn4nc(NC(=O)N5CC[C@H](O)C5)nc4c3)cc12)c1cccc(F)c1` [Compound 163], for which, in the experiment on HT-29 cells, the EC50 fell in the range of 10 to 100 nM. The IC50 on RIPK1 is 100 to 1000 nM.
The corresponding values for `C[C@H](NC(=O)c1cn(C)c2ccc(-c3ccn4nc(NC(=O)N5CCC[C@H]5CO)nc4c3)cc12)c1cccc(F)c1` [Compound 164] are 1 to 10 nM and 100 to 1000 nM.
The corresponding values for `C[C@H](NC(=O)c1cn(C)c2ccc(-c3ccn4nc(NC(=O)N[C@@H](C)CO)nc4c3)cc12)c1cccc(F)c1` [Compound 165] are < 1 nM and 10 to 100 nM.
The corresponding values for `CC(NC(=O)c1cn(C)c2ccc(-c3ccn4nc(NC(=O)C5CC5)nc4c3)cc12)c1ccc(F)c(F)c1` (stereo not drawn) [Compound 167] are 10 to 100 nM and 10 to 100 nM.
On to `C[C@H](NC(=O)c1cn(C)c2ccc(-c3ccn4nc(NC(=O)N5CCCC(O)C5)nc4c3)cc12)c1cccc(F)c1` (stereo partly drawn) [Compound 169], for which, in the experiment with HT-29 cells, the EC50 is < 1 nM. Also, the IC50 at RIPK1 fell in the range of 1 to 10 nM.
Regarding `C[C@H](NC(=O)c1cn(C)c2ccc(-c3ccn4nc(NC(=O)N5CCC(O)CC5)nc4c3)cc12)c1cccc(F)c1` [Compound 170], in the experiment on HT-29 cells, the EC50 was < 1 nM. On RIPK1, the IC50 was in the range of 1 to 10 nM.
The corresponding values for `CC(C)CNc1nc2cc(-c3ccc4c(c3)c(C(=O)N[C@@H](C)c3cccc(F)c3)cn4C)ccn2n1` [Compound 171] are < 1 nM and 1 to 10 nM.
Consider `C[C@H](NC(=O)c1cn(C)c2ccc(-c3ccn4nc(NC(=O)N5CC(O)C5)nc4c3)cc12)c1cccc(F)c1` [Compound 172], for which the EC50 in the experiment with HT-29 cells is 100 to 1000 nM. In addition, on RIPK1, the IC50 is ≥ 1000 nM.
Regarding `Cn1cc(C(=O)N2CCC[C@H]2c2cccc(F)c2)c2cc(-c3ccn4nc(NC(=O)C5CC5)nc4c3)ccc21` [Compound 173], the EC50 with HT-29 cells was < 1 nM. In addition, on RIPK1, the IC50 is 1 to 10 nM.
For `CC(C)C(=O)Nc1nc2cc(-c3ccc4c(c3)c(C(=O)N[C@@H](C)c3ccncc3)cn4C)ccn2n1` [Compound 175], the EC50 in the experiment with HT-29 cells is 10 to 100 nM. In addition, the IC50 at RIPK1 was in the range of 10 to 100 nM.
As for `C[C@H](NC(=O)c1cn(C)c2ccc(-c3ccn4nc(NC(=O)C5CC5)nc4c3)cc12)c1ccncc1` [Compound 176], the EC50 with HT-29 cells was in the range of 100 to 1000 nM. Further, the IC50 at RIPK1 was in the range of 100 to 1000 nM.
On to `C[C@H](NC(=O)c1cn(C)c2ccc(-c3ccn4nc(NC(=O)N5CCC[C@@H]5CO)nc4c3)cc12)c1cccc(F)c1` [Compound 177], for which, in the experiment on HT-29 cells, the EC50 was 10 to 100 nM. The IC50 on RIPK1 fell in the range of 10 to 100 nM.

For the origin of these results see US20230365546A1, “5-SUBSTITUTED INDOLE 3-AMIDE DERIVATIVES, PREPARATION METHOD AND USE THEREOF” (ORIGIANT PHARMACEUTICAL CO., LTD, priority 2020, published 2023).
